This data set is described as follows: Solubility determinations in SIF buffers (FaSSIF, FeSSIF, FaSSGF). Format: physicochemical. The following applies: for XRPD (dried) / XRPD (wet): solid residue. As for the experimental part:
At this stage ca. 1 g of each front-runner salt form was prepared. Salt forms that offered significant solubility and stability advantages over the non-ionized API were prioritized. […] Scale Up
The solubility of the salts below was determined in FaSSIF, FeSSIF and FaSSGF by reference to the calibration curve of amorphous compound 1.
Separate portions of compound 1 were weighed out into aluminum boats and were charged to the relevant volumetric flasks. Solutions were made to volume with 1 to 1 (v/v) acetonitrile/purified water to give calibrants of known API concentrations and analyzed by HPLC, suitable to determine the concentration of compound 1 free base in the SIF buffer solubility study.
Each sample (150 mg) was suspended in the relevant SIF buffer (5.0 ml), to give a concentration of 30 mg/ml and maintain at 37° C. for 24 h. The pH was adjusted using 1 M HCl or 1 M NaOH, to ensure that the suspension remains in range.
Sample (1 ml) of the well-stirred representative suspensions was obtained at 1 h, 3 h, 6 h and 24 h and the pH was recorded. The pH of the bulk suspension was re-adjusted when necessary. The obtained sample from each vial was centrifuged, and the supernatant was analysed by HPLC (note, the analyte was diluted, when outside of the calibration range); XRPD analysis was performed on the wet sample pellet for evidence of form change, as well as on the oven-dried pellet (undervacuum at 40° C.).

[1] abbreviates: FaSSGF (ph 1.6), t = 1 h@37° C.
The mark [2] stands for this setting: FaSSGF (ph 1.6), t = 3 h@37° C.
Where [3] appears, read: FaSSGF (ph 1.6), t = 6 h@37° C.
Setting [4] is: FaSSGF (ph 1.6), t = 24 h @37° C.
Setting [5] is: FaSSIF (ph 6.5), t = 1 h@37° C.
Where [6] appears, read: FaSSIF (ph 6.5), t = 3 h@37° C.
[7] abbreviates: FaSSIF (ph 6.5), t = 6 h@37° C.
The mark [8] stands for this setting: FaSSIF (ph 6.5), t = 24 h @37° C.
The mark [9] stands for this setting: FeSSIF (ph 5.0), t = 1 h@37° C.
Where [10] appears, read: FeSSIF (ph 5.0), t = 3 h@37° C.
Where [11] appears, read: FeSSIF (ph 5.0), t = 6 h@37° C.
[12] abbreviates: FeSSIF (ph 5.0), t = 24 h @37° C.

Bounds are passed on as bounds.

`COc1ccc2c(ccn2C[C@@H](C)N(C)C)c1.O=C(O)c1ccccc1` [Compound 1 · Benzoate] had a Solubility under setting [1] of 28.74 mg/mL; a Solubility under setting [2] of 26.85 mg/mL; a Solubility under setting [3] of 26.33 mg/mL; a Solubility under setting [4] of 25.59 mg/mL; a Solubility under setting [5] of more than 30 mg/mL; a Solubility under setting [6] of more than 30 mg/mL. The Solubility was more than 30 mg/mL under setting [7]; more than 30 mg/mL under setting [8]; more than 30 mg/mL under setting [9]; more than 30 mg/mL under setting [10]; more than 30 mg/mL under setting [11]; more than 30 mg/mL under setting [12]. For the same compound, the “XRPD (dried)” value reads like this: under setting [1], “Benzoic acid”; under setting [2], “Benzoic acid”; under setting [3], “Benzoic”; under setting [4], “Benzoic”. The “XRPD (wet)” value is, setting by setting: under setting [1], “Benzoic acid”; under setting [2], “Benzoic acid”; under setting [3], “Benzoic acid”; under setting [4], “Benzoic”.

For the compound `COc1ccc2c(ccn2C[C@@H](C)N(C)C)c1.O=C(O)/C=C/C(=O)O` [Compound 1 · Fumarate], the Solubility is more than 30 mg/mL under setting [1]; more than 30 mg/mL under setting [2]; more than 30 mg/mL under setting [3]; more than 30 mg/mL under setting [4]; more than 30 mg/mL under setting [5]; more than 30 mg/mL under setting [6]. Moreover, the Solubility reads like this: under setting [7], more than 30 mg/mL; under setting [8], more than 30 mg/mL; under setting [9], more than 30 mg/mL; under setting [10], more than 30 mg/mL; under setting [11], more than 30 mg/mL; under setting [12], more than 30 mg/mL.

As to `COc1ccc2c(ccn2C[C@@H](C)N(C)C)c1.Cl` [Compound 1 · HCl], the Solubility under setting [1] is more than 30 mg/mL; the Solubility under setting [2] was more than 30 mg/mL; the Solubility under setting [3] is more than 30 mg/mL; the Solubility under setting [4] was more than 30 mg/mL; the Solubility under setting [5] is more than 30 mg/mL; the Solubility under setting [6] is more than 30 mg/mL. Moreover, the Solubility by setting is: under setting [7], more than 30 mg/mL; under setting [8], more than 30 mg/mL; under setting [9], more than 30 mg/mL; under setting [10], more than 30 mg/mL; under setting [11], more than 30 mg/mL; under setting [12], more than 30 mg/mL.

As to `COc1ccc2c(ccn2C[C@@H](C)N(C)C)c1.O=C(O)/C=C\C(=O)O` [Compound 1 · Maleate], the Solubility was more than 30 mg/mL under setting [1]; more than 30 mg/mL under setting [2]; more than 30 mg/mL under setting [3]; more than 30 mg/mL under setting [4]; more than 30 mg/mL under setting [5]; more than 30 mg/mL under setting [6]. The Solubility is, setting by setting: under setting [7], more than 30 mg/mL; under setting [8], more than 30 mg/mL; under setting [9], more than 30 mg/mL; under setting [10], more than 30 mg/mL; under setting [11], more than 30 mg/mL; under setting [12], more than 30 mg/mL.
